Values quoted from earlier work, collected in patent publication US8197851B2, “Carotenoid composition and method for preparation thereof” (priority 2004, dated 2012).

Experiments:
[1] = levels as high as 800 mg
[2] = test system: natural killer cell (NK) activity; settings: elderly men
[3] = test system: mouse epidermis (in vivo); settings: topical
[4] = test system: human epidermis (ex vivo); settings: topical
[5] = test system: Gap Junctional Communication (GJC); settings: independent of Vitamin A activity or antioxidant actions
[6] = test system: UV light-suppressed immune function (DTH); settings: young and elderly men
[7] = test system: cell surface molecules that initiate immune response; settings: human trials
[8] = test system: macular degeneration changes; settings: 80 mg, versus placebo

CC(=O)Oc1c(C)c(C)c2c(c1C)CC[C@@](C)(CCC[C@H](C)CCC[C@H](C)CCCC(C)C)O2 (racemic) [dl-alpha tocopheryl acetate]
adverse effects [1]: No adverse effects

CC1=C(/C=C/C(C)=C/C=C/C(C)=C/C=C/C=C(C)/C=C/C=C(C)/C=C/C2=C(C)CCCC2(C)C)C(C)(C)CCC1 [beta-carotene]
age related decline in natural killer cell (NK) activity [2]: Prevented age related decline in natural killer cell (NK) activity
increase of epidermal retinyl esters [3]: 3 fold
increase of epidermal retinyl esters [4]: 10 fold
increase of GJC [5]: most potent in increasing GJC
UV light-suppressed immune function (DTH) [6]: Prevented UV light-suppressed immune function (DTH)
expression of cell surface molecules that initiate immune response [7]: stimulated expression of cell surface molecules that initiate immune response

[Zn] [zinc]
retarding macular degeneration changes [8]: significantly better than placebo
